# What was measured:
# human M5 receptors = target: T1, human M5 receptors (Homo sapiens, UniProt P08912); test: hM5 PAM calcium mobilization assay; type: cell-based; conditions: for improvement in hM5 PAM EC50 over the naked phenylsulfonamide: versus 6a
# T1 sequence (P08912 1-532): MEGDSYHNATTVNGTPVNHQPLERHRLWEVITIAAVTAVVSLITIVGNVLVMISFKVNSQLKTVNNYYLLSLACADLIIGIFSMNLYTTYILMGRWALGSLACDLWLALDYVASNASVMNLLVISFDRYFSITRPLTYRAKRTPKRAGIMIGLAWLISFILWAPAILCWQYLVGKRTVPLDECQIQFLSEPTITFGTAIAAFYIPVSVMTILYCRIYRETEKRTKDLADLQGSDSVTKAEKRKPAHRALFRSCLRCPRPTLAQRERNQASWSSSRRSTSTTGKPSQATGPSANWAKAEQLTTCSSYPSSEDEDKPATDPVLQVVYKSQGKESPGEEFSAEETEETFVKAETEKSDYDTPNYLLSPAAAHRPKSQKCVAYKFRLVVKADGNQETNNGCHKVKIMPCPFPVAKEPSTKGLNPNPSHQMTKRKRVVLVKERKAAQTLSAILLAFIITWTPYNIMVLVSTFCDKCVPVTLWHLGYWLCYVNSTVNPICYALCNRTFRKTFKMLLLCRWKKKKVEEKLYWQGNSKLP
# hM5 receptor [1] = target: T2, hM5 receptor (Homo sapiens, UniProt P08912); test: ACh CRC fold shift, calcium mobilization; type: cell-based; conditions: compound at 10 μM; leftward shift in ACh potency at hM5; average ± SEM, n = 3–4
# T2 sequence (P08912 1-532): T1 sequence (P08912 1-532)
# [2] = in vitro metabolite identification; type: in vitro ADME
# [3] = hepatic microsomal intrinsic clearance, human; type: in vitro ADME
# hM2 = target: T3, hM2 (Homo sapiens, UniProt P08172); test: muscarinic selectivity calcium mobilization, hM2/Gqi5; type: cell-based; conditions: CHO hM2/Gqi5
# T3 sequence (P08172 1-466): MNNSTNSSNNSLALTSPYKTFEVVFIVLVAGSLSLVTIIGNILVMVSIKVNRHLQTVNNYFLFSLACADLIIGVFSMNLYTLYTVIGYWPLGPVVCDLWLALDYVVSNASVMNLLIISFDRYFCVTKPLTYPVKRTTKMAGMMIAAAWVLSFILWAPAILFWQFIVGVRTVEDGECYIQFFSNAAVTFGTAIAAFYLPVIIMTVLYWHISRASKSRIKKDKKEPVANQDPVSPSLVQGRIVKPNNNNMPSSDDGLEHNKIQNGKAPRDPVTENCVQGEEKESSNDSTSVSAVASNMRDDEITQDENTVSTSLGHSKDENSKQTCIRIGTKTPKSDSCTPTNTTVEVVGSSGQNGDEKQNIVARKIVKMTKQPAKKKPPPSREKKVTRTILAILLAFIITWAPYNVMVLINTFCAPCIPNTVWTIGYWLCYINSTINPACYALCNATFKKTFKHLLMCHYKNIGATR
# hM4 = target: T4, hM4 (Homo sapiens, UniProt P08173); test: muscarinic selectivity calcium mobilization, hM4/Gqi5; type: cell-based; conditions: CHO hM4/Gqi5
# T4 sequence (P08173 1-479): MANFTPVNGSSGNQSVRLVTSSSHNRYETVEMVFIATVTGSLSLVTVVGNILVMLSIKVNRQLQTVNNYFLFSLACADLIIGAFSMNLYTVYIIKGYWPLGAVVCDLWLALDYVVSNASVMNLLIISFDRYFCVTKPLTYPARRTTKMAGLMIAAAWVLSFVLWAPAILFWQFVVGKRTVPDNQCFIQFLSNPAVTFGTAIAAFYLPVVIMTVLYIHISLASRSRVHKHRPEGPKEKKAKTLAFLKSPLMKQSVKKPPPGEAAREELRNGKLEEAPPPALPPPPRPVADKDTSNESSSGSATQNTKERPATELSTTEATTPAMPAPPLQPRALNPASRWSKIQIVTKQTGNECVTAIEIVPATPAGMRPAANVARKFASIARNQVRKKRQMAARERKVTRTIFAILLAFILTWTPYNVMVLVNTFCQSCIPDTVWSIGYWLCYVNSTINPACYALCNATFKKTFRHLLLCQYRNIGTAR
# [4] = hepatic microsomal intrinsic clearance, rat; type: in vitro ADME
# hM1 = target: T5, hM1 (Homo sapiens, UniProt P11229); test: muscarinic selectivity calcium mobilization, hM1; type: cell-based; conditions: hM5 versus hM1 PAM potency
# T5 sequence (P11229 1-460): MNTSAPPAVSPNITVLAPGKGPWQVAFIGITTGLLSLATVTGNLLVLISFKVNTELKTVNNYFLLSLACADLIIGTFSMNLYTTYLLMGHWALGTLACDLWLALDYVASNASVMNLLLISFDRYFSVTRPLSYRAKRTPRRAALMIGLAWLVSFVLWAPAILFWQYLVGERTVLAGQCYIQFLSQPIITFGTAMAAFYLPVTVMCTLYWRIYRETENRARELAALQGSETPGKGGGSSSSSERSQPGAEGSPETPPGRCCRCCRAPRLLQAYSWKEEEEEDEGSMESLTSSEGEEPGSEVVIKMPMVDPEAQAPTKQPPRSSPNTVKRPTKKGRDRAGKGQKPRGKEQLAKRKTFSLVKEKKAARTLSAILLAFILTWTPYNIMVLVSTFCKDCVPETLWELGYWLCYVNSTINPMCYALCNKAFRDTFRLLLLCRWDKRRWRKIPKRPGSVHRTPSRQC
# hM5 receptor [5] = target: T2, hM5 receptor; test: [3H]NMS competition binding, hM5 CHO membranes; conditions: 0.3 nM [3H]NMS
# hM3 = hM3 (Homo sapiens, UniProt P20309); test: muscarinic selectivity calcium mobilization, hM3; type: cell-based; conditions: hM5 versus hM3 PAM potency
# Sequence of hM3 (P20309 whole entry): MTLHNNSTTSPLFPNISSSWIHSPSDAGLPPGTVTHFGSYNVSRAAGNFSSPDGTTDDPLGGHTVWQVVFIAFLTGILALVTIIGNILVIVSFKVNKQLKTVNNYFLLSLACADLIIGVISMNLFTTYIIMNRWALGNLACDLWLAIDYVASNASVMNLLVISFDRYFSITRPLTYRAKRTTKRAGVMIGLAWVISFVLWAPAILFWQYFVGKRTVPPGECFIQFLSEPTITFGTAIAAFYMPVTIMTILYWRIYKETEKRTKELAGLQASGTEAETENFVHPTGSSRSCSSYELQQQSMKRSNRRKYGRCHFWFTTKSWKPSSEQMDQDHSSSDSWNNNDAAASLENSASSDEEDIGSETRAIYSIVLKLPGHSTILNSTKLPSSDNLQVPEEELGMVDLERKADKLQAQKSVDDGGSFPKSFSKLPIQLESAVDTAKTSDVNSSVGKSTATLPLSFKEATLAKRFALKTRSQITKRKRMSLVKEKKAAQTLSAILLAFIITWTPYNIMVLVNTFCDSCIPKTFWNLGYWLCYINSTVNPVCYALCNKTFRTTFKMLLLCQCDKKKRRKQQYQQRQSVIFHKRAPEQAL
smiles,measurement,setting,value
CCN(Cc1ccccc1)C(=O)C1CCN(S(=O)(=O)c2ccc3occc3c2)CC1 [6o],improvement in hM5 PAM EC50 over the naked phenylsulfonamide,human M5 receptors,approximately 3 fold
CCN(Cc1ccccc1)C(=O)C1CCN(S(=O)(=O)c2ccc3[nH]ncc3c2)CC1 [6p],improvement in hM5 PAM EC50 over the naked phenylsulfonamide,human M5 receptors,approximately 3 fold
CCN(Cc1ccccc1)C(=O)C1CCN(S(=O)(=O)c2ccc3cn[nH]c3c2)CC1 [6q],improvement in hM5 PAM EC50 over the naked phenylsulfonamide,human M5 receptors,approximately 3 fold
CCN(C(=O)C1CCN(S(=O)(=O)c2ccc(OC)cc2)CC1)[C@H](C)c1ccccc1 [7b],improvement in hM5 potency relative to des-methyl analog 6b,human M5 receptors,3 fold
same,ACh fold shift,hM5 receptor [1],7- to 12 fold
CCN(C(=O)C1CCN(S(=O)(=O)c2ccc3[nH]ncc3c2)CC1)[C@H](C)c1ccccc1 [7g],ACh fold shift,hM5 receptor [1],7- to 12 fold
same,primary site of metabolism,[2],N-ethyl moiety as the primary site of metabolism
CCN(Cc1ccccc1C(F)(F)F)C(=O)C1CCN(S(=O)(=O)c2ccc3cn[nH]c3c2)CC1 [8j],ACh fold shift,hM5 receptor [1],7- to 12 fold
"CCN(Cc1ccccc1C(F)(F)F)C(=O)C1CCN(S(=O)(=O)c2ccc3[nH]ncc3c2)CC1 [8n, 1-((1H-Indazol-5-yl)sulfonyl)-N-ethyl-N-(2-(trifluoromethyl)benzyl)piperidine-4-carboxamide]",hepatic microsomal intrinsic clearance CLint,[3],540 mL min^–1 kg^–1
same,predicted hepatic clearance CLhep,[3],20 mL min^–1 kg^–1
same,CLint scaled at 1 µM,"[3]; liver microsomes, pH 7.4",540 mL/min/kg
same,predicted CLhep (mL/min/kg),"[3]; well-stirred model from CLint, not corrected for fu plasma",human: 20 mL/min/kg
same,activity at hM2 (in words),hM2,no activity
same,hM5 PAM potency relative to des-CF3 congener 6p,human M5 receptors; more potent,8 fold
same,activity at hM4 (in words),hM4,no activity
same,hepatic microsomal intrinsic clearance CLint,[4]; rat,2600 mL min^–1 kg^–1
same,predicted hepatic clearance CLhep,[4]; rat,68 mL min^–1 kg^–1
same,CLint scaled at 1 µM,"[4]; rat, liver microsomes, pH 7.4",2600 mL/min/kg
same,predicted CLhep (mL/min/kg),"[4]; rat, well-stirred model from CLint, not corrected for fu plasma",rat: 68 mL/min/kg
same,selectivity over hM1,hM1,greater than 10 fold
same,ACh fold shift,hM5 receptor [1],7- to 12 fold
same,effect on [3H]NMS binding (in words),hM5 receptor [5],no inhibitory effect
same,selectivity over hM3,hM3,greater than 10 fold
O=C(C1CCN(S(=O)(=O)c2ccc3[nH]ncc3c2)CC1)N(Cc1ccccc1C(F)(F)F)C1CC1 [9d],activity at hM5 (in words),"human M5 receptors; PAM, calcium mobilization",complete absence of activity
same,change of intrinsic microsomal clearance (in words),[4]; relative to the other analogs (rat CLint > 500),reduce intrinsic microsomal clearance by an order of magnitude

# — paper PMC4175000 (Journal of Medicinal Chemistry, 2014)
